Measured values reported in patent US8420642B2, “Pyridine derivatives useful as glucokinase activators” (Merck Patent GmbH, priority 2007, dated 2013).

Experiments:
[1] = target: T1, glucokinase (GK), human enzyme (Homo sapiens, UniProt P35557); assay: Glucokinase Activation Screening Assay (coupled enzyme assay with PK/LDH, NADH decline at 340 nm); assay type: biochemical; details: for fold activation (human): relative to control incubation with 2 mM glucose; for EC50: 2 mM glucose
T1 sequence (P35557 1-465): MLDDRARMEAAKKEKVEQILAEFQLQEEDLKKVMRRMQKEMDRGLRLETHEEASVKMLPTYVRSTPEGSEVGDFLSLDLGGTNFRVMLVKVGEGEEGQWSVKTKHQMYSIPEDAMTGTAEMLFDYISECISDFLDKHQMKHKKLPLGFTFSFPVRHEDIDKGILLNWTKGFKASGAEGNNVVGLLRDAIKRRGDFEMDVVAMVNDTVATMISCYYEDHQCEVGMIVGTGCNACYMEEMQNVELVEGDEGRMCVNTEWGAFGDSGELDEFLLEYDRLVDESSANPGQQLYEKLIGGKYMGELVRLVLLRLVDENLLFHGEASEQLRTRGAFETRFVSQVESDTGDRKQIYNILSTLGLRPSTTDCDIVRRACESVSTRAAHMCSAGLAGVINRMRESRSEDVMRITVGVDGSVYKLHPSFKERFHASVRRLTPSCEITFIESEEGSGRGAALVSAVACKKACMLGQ
Method: Glucokinase Activation Screening Assay
GK activity (human or rat enzyme) is measured by an coupled enzyme assay using pyruvate kinase (PK) and lactate dehydrogenase (LDH) as coupling enzymes. GK activity is calculated from the decline in NADH monitored photometrically with a microtiter plate (MTP) reader at 340 nm. For screening purposes, the GK assay is routinely run in a 384-MTP format, in a total volume of 33 μl/well. 10 μl of the ATP-regeneration solution (in HEPES-buffer*, pH 7.0, 6.73 U/ml pyruvate kinase, 6.8 U/ml lactate dehydrogenase) and 10 μl of the glucokinase-/glucose solution (15 μg/ml, 6.6 mM glucose in HEPES-buffer*, pH 7.0; the concentration of the glucose stock-solution was 660 mM in Millipore H2O) were mixed together with 3 μl of a 10% DMSO solution (in HEPES-buffer*, pH 7.0) containing 3.3-fold the amounts of the compounds to achieve final compound concentrations in the range between 1 nM to 30 μM (sometimes 300 μM) in the assay solution (s. below). The solutions were mixed for 5 sec, and after a centrifugation at 243×g for 5 min, the solutions were preincubated for 25 min at room temperature.
The reaction was started by the addition of 10 μl of the NADH-/ATP-solution (4.29 mM NADH, 4.95 mM ATP, in HEPES-buffer*). The MTP was shaken for 5 sec., and then, the absorbance at 340 nm was monitored continuously in a MTP-reader (TECAN Spectro fluor plus) for the next 27 min (with a MTP-cycling time of 199 sec.). The final concentrations of the various components were as follows: 49.5 mM Hepes, pH 7.0, 1.49 mM PEP, 1.3 mM NADH, 49.5 mM KCl, 4.96 mM MgCl2, 1.5 mM Mg-ATP, 1.98 mM DTT, 2.04 U/ml pyruvate kinase, 2.06 U/ml lactate-dehydrogenase, 0.91% DMSO, 0.15 μg/well glucokinase, and test compounds in the range between 1 nM and 300 μM.
The change in the optical density (ΔOD340 nm) in the presence of the compound was expressed relative to the ΔOD340 nm, ctrl of the control incubation (in the presence of 2 mM glucose and 0.91% DMSO), taking into account the optical density of the blank sample (incubation in the absence of 2 mM glucose). For the determination of the half maximal effective concentration (EC50), the %−Ctrl-values were plotted in a semi-logarithmic graph against the conc. of the compound of interest. The data points were fitted to a sigmoid curve function (f(x)=((%−Ctrlmax%−Ctrlmin)/(1−(EC50/x**^n(Hill)))+%−Ctrlmin)) by a non-linear regression analysis.
* Hepes-buffer (50 mM Hepes, pH 7.0, 5 mM MgCl2, 50 mM KCl, 1.5 mM PEP, 0.1% BSA). DTT was added to the Hepes-buffer from a 200× stock solution (in Millipore H2O) freshly each day. The final concentration of DTT in the Hepes-buffer is 2 mM.

Structure (SMILES)	fold activation (human) [1]	melting point	EC50 [1]
Cc1csc(Nc2ccc(Br)cn2)n1 [A1, (5-bromo-pyridine-2-yl)-(4-methyl-thiazole-2-yl)-amine]	D (fold activation: 1.2-5 μM = D)	241.5 to 242.6 °C	
BrCc1csc(Nc2ccc(Br)cn2)n1 [A2, (4-bromomethyl-thiazole-2-yl)-(5-bromo-pyridine-2-yl)-amine]	D (fold activation: 1.2-5 μM = D)		1 to 10 µM
Brc1ccc(Nc2nc(Cn3ccnc3)cs2)nc1 [A3, (5-bromo-pyridine-2-yl)-(4-imidazole-1-ylmethyl-thiazole-2-yl)-amine]	D (fold activation: 1.2-5 μM = D)		1 to 10 µM
CCOC(=O)c1csc(Nc2ccc(Br)cn2)n1 [A4, 2-(5-bromo-pyridine-2-ylamino)-thiazole-4-carboxylic acid ethyl ester]	D (fold activation: 1.2-5 μM = D)	299.8 to 300.8 °C	
CC(=O)OCc1csc(Nc2ccc(Br)cn2)n1 [A5, acetic acid 2-(5-bromo-pyridine-2-ylamino)-thiazole-4-ylmethyl ester]	D (fold activation: 1.2-5 μM = D)	200.9 to 201.6 °C	1 to 10 µM
OCc1csc(Nc2ccc(Br)cn2)n1 [A6, [2-(5-bromo-pyridine-2-ylamino)-thiazole-4-yl]-methanol]	D (fold activation: 1.2-5 μM = D)	207 to 209 °C	
NCCSCc1csc(Nc2ccc(Br)cn2)n1 [A7, [4-(2-amino-ethylsulfanylmethyl)-thiazole-2-yl]-(5-bromopyridine-2-yl)-amine]	D (fold activation: 1.2-5 μM = D)		> 10 µM
c1ccc(Oc2ccc(Nc3nccs3)nc2)cc1 [A8, (5-phenoxy-pyridine-2-yl)-thiazole-2-yl-amine]	D (fold activation: 1.2-5 μM = D)	161.4 to 162.4 °C	> 10 µM
CC(=O)OCc1csc(Nc2ccc(Oc3ccccc3)cn2)n1 [A9, acetic acid 2-(5-phenoxy-pyridine-2-ylamino)-thiazole-4-ylmethyl ester]	D (fold activation: 1.2-5 μM = D)	158.5 to 160.5 °C	> 10 µM
OCc1csc(Nc2ccc(Oc3ccccc3)cn2)n1 [A10, [2-(5-phenoxy-pyridine-2-ylamino)-thiazole-4-yl]-methanol]	E (5-10 μM = E)	130 to 131 °C	1 to 10 µM
c1ccc(Sc2ccc(Nc3nccs3)nc2)cc1 [A12, (5-phenylsulfanyl-pyridine-2-yl)-thiazole-2-yl-amine]	D (fold activation: 1.2-5 μM = D)		> 10 µM
[O-][S+](c1ccccc1)c1ccc(Nc2nccs2)nc1 (centres unmarked) [A13, (5-phenylsulfinyl-pyridine-2-yl)-thiazole-2-yl-amine]	D (fold activation: 1.2-5 μM = D)		
O=S(=O)(c1ccccc1)c1ccc(Nc2nccs2)nc1 [A14, (5-phenylsulfonyl-pyridine-2-yl)-thiazole-2-yl-amine]	D (fold activation: 1.2-5 μM = D)		> 10 µM
COCCOc1cc(Oc2ccccc2)cnc1Nc1nccs1 [A20, [3-(2-methoxy-ethoxy)-5-phenoxy-pyridine-2-yl]-thiazole-2-yl-amine]	E (5-10 μM = E)	140.6 to 140.9 °C	1 to 10 µM
c1ccc(Oc2cnc(Nc3nccs3)c(OC3CCCC3)c2)cc1 [A21, (3-cyclopentyloxy-5-phenoxy-pyridine-2-yl)-thiazole-2-yl-amine]	E (5-10 μM = E)		0.01 to 1 µM
CCCOc1ccc(Nc2ccn(C)n2)nc1 [A23, (1-methyl-1H-pyrazole-3-yl)-(5-propoxy-pyridine-2-yl)-amine]	D (fold activation: 1.2-5 μM = D)		
COCC(C)Oc1cc(Oc2ccccc2)cnc1Nc1nccs1 (centres unmarked) [A28, [3-(2-Methoxy-1-methyl-ethoxy)-5-phenoxy-pyridine-2-yl]-thiazole-2-yl-amine]	E (5-10 μM = E)		1 to 10 µM
c1ccc(Oc2cnc(Nc3nccs3)c(OCC3CCCC3)c2)cc1 [A29, (3-cyclopentylmethoxy-5-phenoxy-pyridine-2-yl)-thiazole-2-yl-amine]	D (fold activation: 1.2-5 μM = D)		0.01 to 1 µM
c1ccc(COc2ccc(Nc3nccs3)nc2)cc1 [A30, (5-benzyloxy-pyridine-2-yl)-thiazole-2-yl-amine]	D (fold activation: 1.2-5 μM = D)		
COCCOc1cc(Oc2cccnc2)cnc1Nc1nccs1 [A31, [3-(2-methoxy-ethoxy)-5-(pyridine-3-yloxy)-pyridine-2-yl]-thiazole-2-yl-amine]	E (5-10 μM = E)		
COCCOc1cc(Oc2ccc(S(C)(=O)=O)cc2)cnc1Nc1nccs1 [A32, [5-(4-methanesulfonyl-phenoxy)-3-(2-methoxy-ethoxy)pyridine-2-yl]-thiazole-2-yl-amine]	E (5-10 μM = E)		1 to 10 µM
CS(=O)(=O)c1ccc(Oc2ccc(Nc3ccccn3)nc2)cc1 [A94]	E (5-10 μM = E)		
COCCOc1cc(Oc2ccccc2)cnc1Nc1cnccn1 [A95]	D (fold activation: 1.2-5 μM = D)		
COCCOc1cc(Oc2ccccc2)cnc1Nc1ccccn1 [A96]	D (fold activation: 1.2-5 μM = D)		
COCCOc1cc(Oc2ccccc2)cnc1Nc1ccn(C)n1 [A97]	E (5-10 μM = E)		
